Laboratory results from patent US20250129068A1 (IP2IPO INNOVATIONS LIMITED, priority 2021, published 2025).

molecular target: full-length human GCN2 enzyme (Homo sapiens (Human), UniProt Q9P2K8); test: GCN2 enzyme inhibition, LanthaScreen TR-FRET Kinase Activity assay; format: biochemical; details: 10 μM ATP; mean of 1 to 3 replicate assays
Method: The inhibitory activity of the Example compounds towards GCN2 enzyme was measured according to the description below, using a LanthaScreen TR-FRET (Time Resolved Fluorescence Resonance Energy Transfer) Kinase Activity assay distributed by ThermoFisher Scientific.
The full-length human GCN2 enzyme (UniProt accession number Q9P2K8) was used for all experiments (Carna Bioscience). The TR-FRET pair was composed of GFP-elF2a and LanthaScreen Terbium-labeled anti-pelF2a (pSer52) Antibody.
Each example compound was dissolved in DMSO (0.15 mM) and dispensed in a 384-well plate by a D300 dispenser (Tecan) to a final concentration range 3000-0.13 nM using the logarithmic dilution mode in 2 replicates. Full inhibition (3000 nM commercial reference inhibitor) and DMSO vehicle control wells were also included on the same plate. All volumes were normalized to the final DMSO concentration of 2% of the reaction volume. Next, 5 μL of H2O was added to each well of the plate.
The enzyme mixture was prepared to obtain the following concentrations: • GCN2—30 nM • unloaded tRNA—0.3 nM • HEPES (pH=7.0)—100 mM • MgCl2—20 mM; MnCl2—10 mM
The mixture was applied by adding 5 μL to each well of the plate. The enzyme and the tested compound were then incubated at room temperature for 20 min while shaking at 450 rpm.
The substrate mixture was prepared to obtain the following concentrations: • GFP-elF2α—240 nM • ATP-30 PM • HEPES (pH=7.0)—50 mM • MgCl2—10 mM • MnCl2—5 mM.
The mixture was applied by adding 5 μL to each well of the plate. Thus, the final concentrations of the 15 μL reaction mixture were as follows: • GCN2—10 nM • unloaded tRNA—0.1 nM • GFP-elF2α—80 nM • ATP-10 μM • HEPES (1 M, pH=7.0)—50 mM • MgCl2—10 mM • MnCl2—5 mM.
The reaction was allowed to proceed at room temperature for 30 min while shaking at 450 rpm.
The antibody mixture was prepared to obtain the following concentrations: • Na2EDTA·2H2O—40 mM, in TR-FRET Dilution Buffer (Life technologies) • Tb-anti-pelF2a antibodies—4 nM.
The mixture was applied by adding 15 μL to each well. The plate was then incubated at room temperature for 60 min while shaking at 450 rpm and then read using Tecan Spark reader using specific TR-FRET filters.
The analysis of the GFP/Tb fluorescence results was conducted with GraphPad Prism to determine IC50 for each of the example compounds using 4-parameter model: log (inhibitor) vs. response-variable slope. IC50 and Ki values were calculated in the usual way. The assay was carried out between 1 and 3 times. The results in the table below are the mean results from replicate assays for the compound in question, where applicable.

full-length human GCN2 enzyme, sequence (Q9P2K8 whole entry): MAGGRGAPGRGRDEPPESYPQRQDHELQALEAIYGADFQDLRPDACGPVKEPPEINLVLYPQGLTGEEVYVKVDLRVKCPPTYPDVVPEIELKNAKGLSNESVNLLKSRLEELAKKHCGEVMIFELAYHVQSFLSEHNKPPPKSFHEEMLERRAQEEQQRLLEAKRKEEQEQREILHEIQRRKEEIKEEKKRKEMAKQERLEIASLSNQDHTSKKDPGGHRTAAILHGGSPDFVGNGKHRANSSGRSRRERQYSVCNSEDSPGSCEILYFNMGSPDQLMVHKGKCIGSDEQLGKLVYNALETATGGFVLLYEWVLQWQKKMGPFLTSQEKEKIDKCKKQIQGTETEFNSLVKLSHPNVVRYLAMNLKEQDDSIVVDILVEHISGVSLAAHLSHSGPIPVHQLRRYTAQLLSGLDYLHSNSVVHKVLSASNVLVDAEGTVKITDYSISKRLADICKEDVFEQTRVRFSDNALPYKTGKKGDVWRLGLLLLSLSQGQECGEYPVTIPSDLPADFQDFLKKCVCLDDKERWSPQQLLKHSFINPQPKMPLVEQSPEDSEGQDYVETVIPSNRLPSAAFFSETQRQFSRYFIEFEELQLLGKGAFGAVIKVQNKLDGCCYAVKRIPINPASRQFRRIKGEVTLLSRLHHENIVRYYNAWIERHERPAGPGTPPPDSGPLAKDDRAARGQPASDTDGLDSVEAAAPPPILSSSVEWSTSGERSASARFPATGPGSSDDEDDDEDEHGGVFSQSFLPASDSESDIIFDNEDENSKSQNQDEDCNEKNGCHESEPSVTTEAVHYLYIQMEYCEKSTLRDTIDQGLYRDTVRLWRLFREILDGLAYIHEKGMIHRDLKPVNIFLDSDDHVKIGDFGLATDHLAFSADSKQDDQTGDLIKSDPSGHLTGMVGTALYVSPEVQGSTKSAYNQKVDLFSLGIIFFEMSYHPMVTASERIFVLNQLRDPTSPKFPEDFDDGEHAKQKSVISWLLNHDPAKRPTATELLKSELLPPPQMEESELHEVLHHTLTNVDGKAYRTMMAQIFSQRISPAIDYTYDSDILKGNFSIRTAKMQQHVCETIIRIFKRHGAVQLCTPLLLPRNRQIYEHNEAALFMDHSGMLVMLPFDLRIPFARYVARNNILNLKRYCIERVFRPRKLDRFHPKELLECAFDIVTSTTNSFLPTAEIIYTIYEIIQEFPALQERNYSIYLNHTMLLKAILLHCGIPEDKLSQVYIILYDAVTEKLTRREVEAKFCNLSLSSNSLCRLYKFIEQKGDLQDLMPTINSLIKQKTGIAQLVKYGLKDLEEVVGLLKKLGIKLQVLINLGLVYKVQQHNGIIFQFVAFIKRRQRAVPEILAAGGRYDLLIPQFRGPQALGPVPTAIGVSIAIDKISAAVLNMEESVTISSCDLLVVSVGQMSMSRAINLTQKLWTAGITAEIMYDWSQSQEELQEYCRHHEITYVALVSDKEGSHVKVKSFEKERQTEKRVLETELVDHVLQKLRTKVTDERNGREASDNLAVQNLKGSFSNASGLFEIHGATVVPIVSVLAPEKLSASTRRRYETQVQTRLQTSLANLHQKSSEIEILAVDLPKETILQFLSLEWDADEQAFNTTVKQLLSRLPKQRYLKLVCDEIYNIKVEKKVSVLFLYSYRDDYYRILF

SMILES | Ki
O=S(=O)(Nc1nccc(C#Cc2cnc3[nH]ncc3c2)c1F)c1cncc(Cl)c1 [Example 7, 5-Chloro-N-[3-fluoro-4-(2-{1H-pyrazolo[3,4-b]pyridin-5-yl}ethynyl)pyridin-2-yl]pyridine-3-sulfonamide] | 127 nM
COc1ncc(C(F)(F)F)cc1S(=O)(=O)Nc1nccc(C#Cc2cnc3[nH]ncc3c2)c1F [Example 5, N-[3-Fluoro-4-(2-{1H-pyrazolo[3,4-b]pyridin-5-yl}ethynyl)pyridin-2-yl]-2-methoxy-5-(trifluoromethyl)pyridine-3-sulfonamide] | 5.78 nM
COc1cccc(S(=O)(=O)Nc2nccc(C#Cc3cnc4[nH]ncc4c3)c2F)c1 [Example 3] | 128 nM
Cc1nc(C)c(S(=O)(=O)Nc2nccc(C#Cc3cnc4[nH]ncc4c3)c2F)s1 [Example 6, N-[3-Fluoro-4-(2-{1H-pyrazolo[3,4-b]pyridin-5-yl}ethynyl)pyridin-2-yl]-2,4-dimethyl-1,3-thiazole-5-sulfonamide] | 29.3 nM
COc1ncc(C#N)cc1S(=O)(=O)Nc1nccc(C#Cc2cnc3[nH]ncc3c2)c1F [Example 12, 5-Cyano-N-[3-fluoro-4-(2-{1H-pyrazolo[3,4-b]pyridin-5-yl}ethynyl)pyridin-2-yl]-2-methoxypyridine-3-sulfonamide] | 7.76 nM
COc1ncccc1S(=O)(=O)Nc1nccc(C#Cc2cnc3[nH]ncc3c2)c1F [Example 8, N-[3-Fluoro-4-(2-{1H-pyrazolo[3,4-b]pyridin-5-yl}ethynyl)pyridin-2-yl]-2-methoxypyridine-3-sulfonamide] | 59.9 nM
Cc1ccc(S(=O)(=O)Nc2nccc(C#Cc3cnc4[nH]ncc4c3)c2F)c(C)n1 [Example 14, N-[3-Fluoro-4-(2-{1H-pyrazolo[3,4-b]pyridin-5-yl}ethynyl)pyridin-2-yl]-2,6-dimethylpyridine-3-sulfonamide] | 17.8 nM
CCOc1ncc(Cl)cc1S(=O)(=O)Nc1nccc(C#Cc2cnc3[nH]ncc3c2)c1F [Example 18, 5-Chloro-2-ethoxy-N-[3-fluoro-4-(2-{1H-pyrazolo[3,4-b]pyridin-5-yl}ethynyl)-pyridin-2-yl]pyridine-3-sulfonamide] | 8.83 nM
COc1ncc(C)cc1S(=O)(=O)Nc1nccc(C#Cc2cnc3[nH]ncc3c2)c1F [Example 9, N-[3-Fluoro-4-(2-{1H-pyrazolo[3,4-b]pyridin-5-yl}ethynyl)pyridin-2-yl]-2-methoxy-5-methyl-pyridine-3-sulfonamide] | 6.6 nM
COc1cccc(S(=O)(=O)Nc2nccc(C#Cc3cnc4[nH]ncc4c3)c2F)c1F [Example 1, 2-Fluoro-N-[3-fluoro-4-(2-{1H-pyrazolo[3,4-b]pyridin-5-yl}ethynyl)pyridin-2-yl]-3-methoxybenzene-1-sulfonamide] | 172 nM
N#Cc1cccc(S(=O)(=O)Nc2nccc(C#Cc3cnc4[nH]ncc4c3)c2F)c1 [Example 2, 3-Cyano-N-[3-fluoro-4-(2-{1H-pyrazolo[3,4-b]pyridin-5-yl}ethynyl)pyridin-2-yl]benzene-1-sulfonamide] | 107 nM
O=S(=O)(Nc1nccc(C#Cc2cnc3[nH]ncc3c2)c1F)c1ccc(Cl)cc1CO [Example 19] | 65 nM
Cc1cnc(C)c(S(=O)(=O)Nc2nccc(C#Cc3cnc4[nH]ncc4c3)c2F)c1 [Example 11, N-[3-Fluoro-4-(2-{1H-pyrazolo[3,4-b]pyridin-5-yl}ethynyl)pyridin-2-yl]-2,5-dimethylpyridine-3-sulfonamide] | 8.17 nM
O=S(=O)(Nc1nccc(C#Cc2cnc3[nH]ncc3c2)c1F)c1cc(Cl)cnc1CCO [Example 20, 5-chloro-N-[3-fluoro-4-(2-{1H-pyrazolo[3,4-b]pyridin-5-yl}ethynyl)pyridin-2-yl]-2-(2-hydroxyethyl)pyridine-3-sulfonamide] | 67 nM
O=S(=O)(Nc1nccc(C#Cc2cnc3[nH]ncc3c2)c1F)c1cccc2c1OCO2 [Example 10, N-[3-Fluoro-4-(2-{1H-pyrazolo[3,4-b]pyridin-5-yl}ethynyl)pyridin-2-yl]-2H-1,3-benzodioxole-4-sulfonamide] | 209 nM
Cc1ncc(Cl)cc1S(=O)(=O)Nc1nccc(C#Cc2cnc3[nH]ncc3c2)c1F [Example 4, 5-Chloro-N-[3-fluoro-4-(2-{1H-pyrazolo[3,4-b]pyridin-5-yl}ethynyl)pyridin-2-yl]-2-methylpyridine-3-sulfonamide] | 2.49 nM
Cc1ncc(F)cc1S(=O)(=O)Nc1nccc(C#Cc2cnc3[nH]ncc3c2)c1F [Example 16, 5-Fluoro-N-[3-fluoro-4-(2-{1H-pyrazolo[3,4-b]pyridin-5-yl}ethynyl)pyridin-2-yl]-2-methylpyridine-3-sulfonamide] | 4.19 nM
